Results taken from publication PMC5376326, “Inhibition of ANO1 by luteolin and its cytotoxicity in human prostate cancer PC-3 cells” (PLoS ONE, 2017).

How the values were obtained:
PC-3 cells [1] = assay: Intracellular calcium measurement (Fluo-4) in PC-3 cells; type: cell-based, human; settings: 100 μM ATP
Experimental: (§1) Intracellular calcium levels were monitored using Fluo-4 NW calcium assay kit (Invitrogen, Carlsbad, CA) as per the manufacturer's protocol in FRT and PC-3 cells. Briefly, the cells were cultured in a 96 well plate and incubated with 100 μL assay buffer including Fluo-4 NW. After 1 hour incubation, Fluo-4 fluorescence was measured with a FLUOstar Omega microplate reader equipped with syringe pumps and custom Fluo-4 excitation/emission filters (485/538 nm). Intracellular calcium increase was induced by application of 100 μM ATP.

PC-3 cells [2] = assay: Cell proliferation (MTS) assay in PC-3 cells; type: cell-based, human; settings: 24 hour; for Inhibition of cell proliferation, high versus low ANO1 expressing PC-3 cells: 3-100 μM
Experimental: PC-3 cells were seeded to a confluency of ~30% on Day 1 in 96-well plates. […] After 24 hour elapsed, the influence of luteolin and kaempferol on the cell viability was estimated by MTS assay. Briefly, the cells were reincubated with MTS for 1 hour. The soluble formazan produced by cellular reduction of MTS was quantified by measuring the absorbance at 490 nm with Infinite M200 (Tecan, Grödig, Austria) microplate reader. MTS assay was done using CellTiter 96 Aqueous One Solution Cell Proliferation Assay kit (Promega, Madison, WI).

mouse ANO2 = biological target: T1, mouse ANO2 (Mus musculus, UniProt Q8CFW1); assay: YFP quenching assay in FRT cells expressing mouse ANO2; type: cell-based; settings: FRT cells expressing mouse ANO2 and YFP; read-out: IC50, ATP-induced activation of ANO2
T1 construct: expressed in transfected cells; host or cells: Fisher rat thyroid (FRT) cells, stably transfected, co-expressing halide sensor YFP
T1 sequence (Q8CFW1 1-1002): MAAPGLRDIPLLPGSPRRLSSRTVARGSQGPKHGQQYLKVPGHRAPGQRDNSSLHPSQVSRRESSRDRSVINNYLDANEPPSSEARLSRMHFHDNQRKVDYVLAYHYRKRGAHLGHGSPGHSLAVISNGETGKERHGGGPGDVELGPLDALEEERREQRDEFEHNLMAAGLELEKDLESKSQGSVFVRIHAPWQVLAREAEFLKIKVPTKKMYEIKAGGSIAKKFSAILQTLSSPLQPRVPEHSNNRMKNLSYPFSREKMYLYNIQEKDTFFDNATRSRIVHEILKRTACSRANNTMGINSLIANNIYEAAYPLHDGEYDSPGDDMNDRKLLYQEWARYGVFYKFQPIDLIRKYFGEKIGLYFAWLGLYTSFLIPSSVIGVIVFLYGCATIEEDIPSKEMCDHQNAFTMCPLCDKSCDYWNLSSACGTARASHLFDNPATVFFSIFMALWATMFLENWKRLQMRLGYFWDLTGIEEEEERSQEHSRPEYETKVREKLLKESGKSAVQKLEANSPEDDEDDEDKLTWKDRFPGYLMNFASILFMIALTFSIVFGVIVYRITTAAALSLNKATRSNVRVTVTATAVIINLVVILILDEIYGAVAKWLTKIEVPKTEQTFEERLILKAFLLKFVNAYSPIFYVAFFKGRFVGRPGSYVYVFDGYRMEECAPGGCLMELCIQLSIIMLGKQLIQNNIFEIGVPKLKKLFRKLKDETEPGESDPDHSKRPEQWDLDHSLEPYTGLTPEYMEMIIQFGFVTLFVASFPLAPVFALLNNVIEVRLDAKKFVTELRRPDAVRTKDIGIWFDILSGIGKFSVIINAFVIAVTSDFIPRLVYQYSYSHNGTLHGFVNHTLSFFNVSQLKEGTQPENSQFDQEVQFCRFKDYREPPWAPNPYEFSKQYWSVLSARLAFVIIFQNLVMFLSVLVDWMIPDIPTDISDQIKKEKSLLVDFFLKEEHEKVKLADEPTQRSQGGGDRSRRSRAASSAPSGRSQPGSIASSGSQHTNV
Experimental: Fisher rat thyroid (FRT) cells were stably transfected with human ANO1 (abc) or mouse ANO2 and the halide sensor YFP as described in previous study. FRT cells were cultured in Coon`s modified F12 medium with 10% FBS, 2 mM L-glutamine, 100 units/ml penicillin and 100 μg/ml streptomycin at 37°C and 5% CO2. PC-3 cells were grown in RPMI 1640 medium supplemented with 10% FBS, 100 units/ml penicillin and 100 μg/ml streptomycin at 37°C and 5% CO2. There were populations of PC-3 cells with high and low expression of ANO1. […]
ANO1 and YFP expressing FRT cells were plated in 96-well black-walled microplates (Corning Inc., Corning, NY) at a density of 20,000 cells per well. Assays were done using FLUOstar Omega microplate reader (BMG Labtech, Ortenberg, Germany) and MARS Data Analysis Software (BMG Labtech) as described in our previous study. […] After 10 minutes incubation at 37°C, 96-well plates were transferred to the plate reader for fluorescence assay. Each well was assayed individually for ANO1-mediated I^- influx by monitoring YFP fluorescence continuously (400 ms per point) for 2 s (baseline), then 140 mM I^- solution containing 200 μM ATP was added at 2 s and then YFP fluorescence was recorded for 6 s. Initial iodide influx rate was determined from the initial slope of fluorescence decrease, by nonlinear regression, following infusion of iodide with ATP.

FRT cells = assay: Intracellular calcium measurement (Fluo-4) in FRT cells; type: cell-based, rat; settings: 30 and 100 μM, 20 min pretreatment, 100 μM ATP
Experimental: as §1

PC-3 cells [3] = assay: Scratch wound healing assay in PC-3 cells; type: cell-based, human; settings: 10 and 30 μM; 48 h post-wound
Experimental: PC-3 cells were cultured in a 96-well plate until they reached ~80% confluence as a monolayer and then the cell layer was wounded using a 96-Well WoundMaker (Essen BioScience, MI) and washed twice with fresh serum free media. The cells were incubated with serum free medium, and images of the wounds were taken using the IncuCyte ZOOM (Essen BioScience, MI). The wound recovery properties of test compounds were analyzed by the IncuCyte software.

[4] = design: method as in PMID 9827549; settings: rat; oral 50 μmol/kg (~14.3 mg/kg) in propyleneglycol; cited from earlier work
PC-3 = tested on: PC-3; design: method as in PMID 18008333, PMID 23300633; settings: intraperitoneal 10 mg/kg; PC-3 xenograft mouse; cited from earlier work

Compound | Effect on ATP-induced intracellular calcium increase (PC-3 cells [1]) | Inhibition of cell proliferation, high versus low ANO1 expressing PC-3 cells (PC-3 cells [2]) | IC50 (mouse ANO2) | Effect on ATP-induced cytosolic calcium increase (FRT cells) | Decrease of cell viability (PC-3 cells [2]; 30 μM, PC-3 cells expressing high levels of ANO1) | Inhibition of wound recovery, high versus low ANO1 expressing PC-3 cells (PC-3 cells [3]) | Maximum plasma level of free luteolin [4] | Maximum plasma level of total luteolin (free luteolin and its conjugates) [4] | Volume and weight of solid tumors (PC-3)
O=c1c(O)c(-c2ccc(O)cc2)oc2cc(O)cc(O)c12 [Kaempferol] | did not alter | did not show the significant difference |  |  |  |  |  |  | 
O=c1cc(-c2ccc(O)c(O)c2)oc2cc(O)cc(O)c12 [luteolin] | did not alter | significantly stronger in PC-3 cells with high levels of ANO1 expression | ~120 µM | not affected | 52.6 ± 3.8% | more strongly inhibited | ~ 3.08 μM | ~ 15.5 μM | significantly decreased
